The test system of this assay is H4 APP751 SWE clone 8.20 (H4-8Sw cells), Aβ42 formation. In words: Inhibition of Aβ42 formation in cultured cells. It is filed as cell-based. To be noted: H4-8Sw cells (H4 neuroglioma stably expressing Swedish mutant APP751), 19 hours incubation, mean±SD, n=2. As for the experimental part: Compounds were assayed for Aβ42 inhibition in cells using H4 APP751 SWE clone 8.20, developed at Bristol-Myers Squibb, an H4 neuroglioma cell line stably expressing the Swedish mutant of APP751. Cells were maintained in log phase through twice weekly passage at a 1:20 dilution. For IC50 determinations, 30 μL cells (1.5×10^4 cells/well) in DMEM media containing 0.0125% BSA (Sigma A8412) were plated directly into 384-well compound plates (Costar 3709) containing 0.1 μL serially diluted compound in DMSO. Following incubation for 19 hours in 5% CO2 at 37° C., plates were briefly centrifuged (1000 rpm, 5 min). Antibody cocktails were freshly prepared by dilution into 40 mM Tris-HCl (pH 7.4) with 0.2% BSA and added to assay plates. For Aβ42 measurements, antibodies specific for the Aβ42 neoepitope (565, developed at Bristol-Myers Squibb; conjugated to the Wallac reagent (Perkin Elmer)) and the N-terminal sequence of Aβ peptide (26D6, developed at SIBIA/Bristol-Myers Squibb; conjugated to APC (Perkin Elmer)) were mixed and 20 μL of the mixture was added to each well of the incubated cell plate yielding a final concentration of 0.8 ng/well 565 and 75 ng/well 26D6. […] Signal was determined using a Viewlux counter (Perkin Elmer) and IC50 values determined using curve fitting in CurveMaster (Excel Fit based).

Regarding `[2H]c1nc(-c2ccc(CN([C@H](CCC(F)(F)F)C(N)=O)S(=O)(=O)c3ccc(Cl)cc3)c(F)c2)no1` [Example 1, (2R)-2-[[(4-Chlorophenyl)sulfonyl][[2-fluoro-4-(1,2,4-oxadiazol-5-deutero-3-yl)phenyl]methyl]amino]-5,5,5-trifluoropentanamide], the IC50 – broadly, the point on the concentration scale where inhibition reaches its midpoint – was determined as 0.12 ± 0.01 nM.

(Values after US8044077B2, “Alpha-(N-sulfonamido)acetamide compounds incorporating deuterium as inhibitors of beta amyloid peptide production” (Bristol-Myers Squibb Company, priority 2009, dated 2011).)
